Source: the NIST ThermoML archive (doi:10.1016/j.jct.2006.10.008)

Columns and labels:
[1] = xn = mol fraction of the nth substance listed; details: 298.15 K, 101 kPa, Liquid
[2] = excess molar enthalpy (molar enthalpy of mixing); xn = mol fraction of the nth substance listed; details: 298.15 K, 101 kPa, Liquid, Calvet calorimetry

ClCCCCl [1,3-dichloropropane] + CCCCOC=O
Details | excess molar enthalpy [kcal/mol] | mass density [kg/m3]
[1], x2 = 0.0505 | – | 1161.51
[1], x2 = 0.101 | – | 1144.56
[1], x2 = 0.1523 | – | 1127.68
[1], x2 = 0.2044 | – | 1110.9
[1], x2 = 0.2581 | – | 1094
[1], x2 = 0.313 | – | 1077.09
[1], x2 = 0.3693 | – | 1060.1
[1], x2 = 0.4847 | – | 1026.45
[1], x2 = 0.5445 | – | 1009.59
[1], x2 = 0.6675 | – | 976.01
[1], x2 = 0.7309 | – | 959.34
[1], x2 = 0.7964 | – | 942.5
[1], x2 = 0.862 | – | 925.98
[1], x2 = 0.9296 | – | 909.27
[2], x2 = 0.0521 | -0.00691 | –
[2], x2 = 0.1142 | -0.0126 | –
[2], x2 = 0.1765 | -0.0207 | –
[2], x2 = 0.2379 | -0.0303 | –
[2], x2 = 0.2982 | -0.0385 | –
[2], x2 = 0.3557 | -0.049 | –
[2], x2 = 0.4108 | -0.0593 | –
[2], x2 = 0.4602 | -0.0664 | –
[2], x2 = 0.5057 | -0.0712 | –
[2], x2 = 0.5508 | -0.0716 | –
[2], x2 = 0.6114 | -0.069 | –
[2], x2 = 0.6872 | -0.0624 | –
[2], x2 = 0.7608 | -0.0527 | –
[2], x2 = 0.8457 | -0.0376 | –
[2], x2 = 0.9261 | -0.0206 | –

ClCCCCl [1,3-dichloropropane] + CCOC=O
Details | excess molar enthalpy [kcal/mol] | mass density [kg/m3]
[1], x2 = 0.0758 | – | 1161.82
[1], x2 = 0.1392 | – | 1147.48
[1], x2 = 0.2059 | – | 1132.04
[1], x2 = 0.2686 | – | 1117.5
[1], x2 = 0.336 | – | 1101.45
[1], x2 = 0.3983 | – | 1086.31
[1], x2 = 0.4584 | – | 1071.44
[1], x2 = 0.5183 | – | 1056.42
[1], x2 = 0.5752 | – | 1041.98
[1], x2 = 0.6319 | – | 1027.35
[1], x2 = 0.6884 | – | 1012.54
[1], x2 = 0.7433 | – | 997.87
[1], x2 = 0.7967 | – | 983.56
[1], x2 = 0.849 | – | 969.23
[1], x2 = 0.9005 | – | 954.87
[1], x2 = 0.949 | – | 941.1
[2], x2 = 0.1171 | 0.00817 | –
[2], x2 = 0.2311 | 0.0165 | –
[2], x2 = 0.3403 | 0.0202 | –
[2], x2 = 0.435 | 0.0196 | –
[2], x2 = 0.5147 | 0.0165 | –
[2], x2 = 0.5813 | 0.0124 | –
[2], x2 = 0.6354 | 0.00894 | –
[2], x2 = 0.682 | 0.00588 | –
[2], x2 = 0.7186 | 0.00296 | –
[2], x2 = 0.7381 | -0.0037 | –
[2], x2 = 0.7773 | -0.00679 | –
[2], x2 = 0.8208 | -0.0092 | –
[2], x2 = 0.8622 | -0.0105 | –
[2], x2 = 0.9018 | -0.00858 | –
[2], x2 = 0.9383 | -0.00452 | –
[2], x2 = 0.9723 | -0.000287 | –

ClCCCCl [1,3-dichloropropane] + COC=O
Details | excess molar enthalpy [kcal/mol] | mass density [kg/m3]
[1], x2 = 0.0849 | – | 1165.85
[1], x2 = 0.165 | – | 1152.81
[1], x2 = 0.244 | – | 1139.5
[1], x2 = 0.3177 | – | 1126.33
[1], x2 = 0.386 | – | 1113.56
[1], x2 = 0.4563 | – | 1099.9
[1], x2 = 0.5138 | – | 1088.31
[1], x2 = 0.5789 | – | 1074.43
[1], x2 = 0.635 | – | 1062.04
[1], x2 = 0.688 | – | 1049.82
[1], x2 = 0.7384 | – | 1037.54
[1], x2 = 0.7876 | – | 1025.35
[1], x2 = 0.8341 | – | 1013.43
[1], x2 = 0.878 | – | 1001.59
[1], x2 = 0.9206 | – | 989.81
[1], x2 = 0.9607 | – | 978.24
[2], x2 = 0.0855 | 0.0211 | –
[2], x2 = 0.2024 | 0.0493 | –
[2], x2 = 0.3078 | 0.0673 | –
[2], x2 = 0.4178 | 0.0803 | –
[2], x2 = 0.4624 | 0.08236 | –
[2], x2 = 0.4877 | 0.0832 | –
[2], x2 = 0.5024 | 0.08372 | –
[2], x2 = 0.5476 | 0.0843 | –
[2], x2 = 0.5583 | 0.08203 | –
[2], x2 = 0.5978 | 0.0807 | –
[2], x2 = 0.6499 | 0.078 | –
[2], x2 = 0.7069 | 0.0738 | –
[2], x2 = 0.7674 | 0.0679 | –
[2], x2 = 0.8297 | 0.0585 | –
[2], x2 = 0.893 | 0.0448 | –
[2], x2 = 0.9533 | 0.0246 | –

ClCCCCCl [1,4-dichlorobutane] + CCCCOC=O
Details | excess molar enthalpy [kcal/mol] | mass density [kg/m3]
[1], x2 = 0.0624 | – | 1118.28
[1], x2 = 0.1208 | – | 1103.88
[1], x2 = 0.1776 | – | 1089.9
[1], x2 = 0.2372 | – | 1075.3
[1], x2 = 0.346 | – | 1048.8
[1], x2 = 0.4096 | – | 1033.38
[1], x2 = 0.4679 | – | 1019.27
[1], x2 = 0.5213 | – | 1006.41
[1], x2 = 0.6434 | – | 977.11
[1], x2 = 0.7039 | – | 962.64
[1], x2 = 0.7624 | – | 948.68
[1], x2 = 0.821 | – | 934.76
[1], x2 = 0.8802 | – | 920.71
[1], x2 = 0.9398 | – | 906.62
[2], x2 = 0.0614 | -0.00275 | –
[2], x2 = 0.1294 | -0.00724 | –
[2], x2 = 0.1998 | -0.0131 | –
[2], x2 = 0.2674 | -0.0218 | –
[2], x2 = 0.3309 | -0.0293 | –
[2], x2 = 0.3925 | -0.039 | –
[2], x2 = 0.4407 | -0.0473 | –
[2], x2 = 0.4897 | -0.0533 | –
[2], x2 = 0.5404 | -0.0542 | –
[2], x2 = 0.5969 | -0.0539 | –
[2], x2 = 0.6592 | -0.0513 | –
[2], x2 = 0.7249 | -0.0461 | –
[2], x2 = 0.795 | -0.0386 | –
[2], x2 = 0.8656 | -0.028 | –
[2], x2 = 0.9356 | -0.0149 | –
